Results reported in US8084484B2, “Vanilloid receptor ligands, pharmaceutical compositions containing them, process for making them, and use thereof for treating pain and other conditions” (Gruenenthal GmbH, priority 2007, dated 2011).

What was measured:
VR1/TRPV1 receptor = VR1/TRPV1 receptor (Homo sapiens, UniProt Q8NER1); assay: Inhibition of human VR1/TRPV1 following pH-stimulus; type: cell-based; details: ne = no effect, no response observed
[1] = target: T1, vanilloid receptor (VR1), human VR1 gene (Homo sapiens, UniProt Q8NER1); assay: FLIPR Ca2+ influx assay on CHO K1 cells transfected with the VR1 gene, capsaicin stimulus (Pharmacological method II); type: cell-based; details: human, Ki by Cheng-Prusoff, ne = no effect, no response observed
T1 construct: expressed in transfected cells; host or cells: CHO K1 cells (ECACC), stably transfected
T1 sequence (Q8NER1 whole entry): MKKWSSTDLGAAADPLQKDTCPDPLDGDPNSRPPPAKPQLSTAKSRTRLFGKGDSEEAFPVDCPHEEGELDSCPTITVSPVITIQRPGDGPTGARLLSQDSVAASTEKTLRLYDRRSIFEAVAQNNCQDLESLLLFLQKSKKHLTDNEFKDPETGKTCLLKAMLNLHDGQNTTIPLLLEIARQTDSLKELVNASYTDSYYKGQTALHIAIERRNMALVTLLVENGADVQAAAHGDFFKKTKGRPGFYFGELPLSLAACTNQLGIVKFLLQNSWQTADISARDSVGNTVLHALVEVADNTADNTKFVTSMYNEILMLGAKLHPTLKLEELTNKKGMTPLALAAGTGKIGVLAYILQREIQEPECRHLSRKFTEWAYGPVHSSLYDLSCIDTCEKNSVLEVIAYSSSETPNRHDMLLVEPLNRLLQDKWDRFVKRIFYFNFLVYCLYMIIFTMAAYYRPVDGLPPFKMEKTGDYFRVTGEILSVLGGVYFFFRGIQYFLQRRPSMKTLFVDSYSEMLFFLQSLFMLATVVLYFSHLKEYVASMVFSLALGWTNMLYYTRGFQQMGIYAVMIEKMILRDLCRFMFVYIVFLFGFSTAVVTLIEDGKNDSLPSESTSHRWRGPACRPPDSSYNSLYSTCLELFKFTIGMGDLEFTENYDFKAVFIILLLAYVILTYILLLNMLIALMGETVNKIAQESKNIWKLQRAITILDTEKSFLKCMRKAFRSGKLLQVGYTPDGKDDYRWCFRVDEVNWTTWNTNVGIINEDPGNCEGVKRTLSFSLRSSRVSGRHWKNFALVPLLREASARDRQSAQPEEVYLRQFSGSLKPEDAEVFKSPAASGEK
Experimental: In addition, compounds according to the invention of the general formulae I, Ia, Ib, Ic, and Id, may be preferred which in the FLIPR assay with CHO K1 cells, which have been transfected with the human VR1 gene, in a concentration of less than 2000 nM, preferably of less than 1000 nM, particularly preferably of less than 300 nM, very particularly preferably of less than 100 nM, still more preferably of less than 75 nM, further preferably of less than 50 nM and most preferably of less than 10 nM, bring about a 50 percent displacement of capsaicin, which is present in a concentration of 100 nM. In this FLIPR assay, the influx of Ca^2+ is quantified with the assistance of a Ca^2+-sensitive dye (type Fluo-4, Molecular Probes Europe BV, Leiden, Netherlands) in a Fluorescent Imaging Plate Reader (FLIPR, Molecular Devices, Sunnyvale, USA) as described below.
II. Functional Investigations on Vanilloid Receptor (VR1)
The agonistic or antagonistic action of the substances to be investigated on the vanilloid receptor (VR1) may also be determined with the following assay. According to this assay, the influx of Ca^2+ through the channel is quantified with the assistance of a Ca^2+-sensitive dye (type Fluo-4, Molecular Probes Europe BV, Leiden, Netherlands) in a Fluorescent Imaging Plate Reader (FLIPR, Molecular Devices, Sunnyvale, USA).
Chinese hamster ovary cells (CHO K1 cells, European Collection of Cell Cultures (ECACC), Great Britain) are stably transfected with the VR1 gene. For functional investigations, these cells are plated out onto poly-D-lysine-coated, black 96-hole plates with a clear base (BD Biosciences, Heidelberg, Germany) at a density of 25,000 cells/hole. The cells are incubated overnight at 37° C. and 5% CO2 in a culture medium (Ham's Nutrient Mixture F12, 10 vol. % FCS (foetal calf serum), 18 μg/mL L-proline). On the following day, the cells are incubated with Fluo-4 (Fluo-4 2 μM, Pluronic F127 0.01 vol. %, Molecular Probes in HBSS (Hank's buffered saline solution), Gibco Invitrogen GmbH, Karlsruhe, Germany) for 30 minutes at 37° C. The plates are then washed 3 times with HBSS buffer and, after a further 15 minutes' incubation at room temperature, used for Ca^2+ measurement in the FLIPR. Ca^2+-dependent fluorescence is here measured before and after the addition of the substances to be investigated (wavelength λex=488 nm, λem=540 nm).
Quantification proceeds by measuring the highest fluorescence intensity (FC, fluorescence counts) over time.
The FLIPR protocol consists of 2 additions of substance. The substances to be tested (10 μM) are firstly pipetted onto the cells and Ca^2+ influx is compared with the control (capsaicin 10 μM) (% activation relative to the Ca^2+ signal after addition of 10 μM of capsaicin). After 5 minutes' incubation, 100 nM of capsaicin are added and the influx of Ca^2+ is likewise determined.
The percentage inhibition in comparison with the maximum achievable inhibition with 10 μM capsaicin is calculated.
On the basis of the percentage displacement by different concentrations of the compounds to be tested of the general formula I, IC50 inhibition concentrations which bring about 50% displacement of capsaicin were calculated. Ki values for the test substances were obtained by conversion using the Cheng-Prusoff equation (Cheng, Prusoff; Biochem. Pharmacol. 22, 3099-3108, 1973).

male mice (NMRI) = assay: Formaldehyde test in mice; type: in vivo; details: 0.3 per os (dose unit not given), second phase
Experimental: III. b. Formaldehyde Test in Mice
The investigation for determining the antinociceptive action of the compounds according to the invention is performed using the formaldehyde test on male mice (NMRI, 20 to 30 g body weight, Iffa, Credo, Belgium).
In the formaldehyde test, according to D. Dubuisson et al., Pain 1977, 4, 161-174 a distinction is drawn between the first (early) phase (0 to 15 minutes after the formaldehyde injection) and the second (late) phase (15 to 60 minutes after the formaldehyde injection). […]
Then, the nociceptive behaviour of the animals is observed and recorded continuously for an investigation period of three minutes in the second (late) phase of the formaldehyde test (21 to 24 minutes after the formaldehyde injection). Quantification of the pain behaviour proceeds by summation of the seconds in which the animals licked and bit the relevant paw during the investigation period.
The comparison is made in each case with control animals, which, instead of compounds according to the invention, received vehicle (0.9% aqueous sodium chloride soln.) before administration of the formaldehyde. On the basis of the quantification of the pain behaviour, the substance effect in the formaldehyde test is determined in percent as a change compared with the corresponding control. […]

[2] = target: T2, vanilloid receptor 1 (VR1/TRPV1) of the rat species (Rattus norvegicus, UniProt O35433); assay: FLIPR Ca2+ influx assay on rat dorsal root ganglia cells, capsaicin stimulus (Pharmacological method I); type: cell-based; details: Ki by Cheng-Prusoff
T2 construct: The spinal column is removed from decapitated rats; endogenous in cells; host or cells: primary cells dissociated from rat dorsal root ganglia, cultured 2-3 days with NGF
T2 sequence (O35433 whole entry): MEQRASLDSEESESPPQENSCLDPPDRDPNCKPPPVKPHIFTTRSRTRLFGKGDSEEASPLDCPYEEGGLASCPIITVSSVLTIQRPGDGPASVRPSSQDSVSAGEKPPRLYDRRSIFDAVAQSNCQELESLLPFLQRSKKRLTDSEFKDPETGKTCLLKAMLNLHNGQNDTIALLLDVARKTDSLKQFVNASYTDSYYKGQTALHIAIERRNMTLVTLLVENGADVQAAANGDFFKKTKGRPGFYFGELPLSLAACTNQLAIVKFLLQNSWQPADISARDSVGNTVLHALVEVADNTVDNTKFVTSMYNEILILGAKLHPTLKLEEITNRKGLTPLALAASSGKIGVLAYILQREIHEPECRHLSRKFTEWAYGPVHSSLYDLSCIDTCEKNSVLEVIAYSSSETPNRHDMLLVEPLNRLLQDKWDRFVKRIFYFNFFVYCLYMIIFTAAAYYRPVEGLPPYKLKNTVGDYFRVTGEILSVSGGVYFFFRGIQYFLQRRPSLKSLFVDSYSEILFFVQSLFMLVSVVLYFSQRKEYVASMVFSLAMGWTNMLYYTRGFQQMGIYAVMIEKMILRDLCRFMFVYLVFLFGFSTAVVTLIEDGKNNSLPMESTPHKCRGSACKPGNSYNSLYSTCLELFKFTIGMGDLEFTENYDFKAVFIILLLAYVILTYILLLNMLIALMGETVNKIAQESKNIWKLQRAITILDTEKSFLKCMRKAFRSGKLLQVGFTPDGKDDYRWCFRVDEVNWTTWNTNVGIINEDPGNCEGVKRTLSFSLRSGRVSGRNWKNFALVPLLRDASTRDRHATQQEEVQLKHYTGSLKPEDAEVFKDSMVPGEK
From the text: I. Functional Investigation on Vanilloid Receptor 1 (VR1/TRPV1 Receptor)
The agonistic or antagonistic action of the substances to be investigated on the vanilloid receptor 1 (VR1/TRPV1) of the rat species may be determined with the following assay. According to this assay, the influx of Ca^2+ through the receptor channel is quantified with the assistance of a Ca^2+-sensitive dye (type Fluo-4, Molecular Probes Europe BV, Leiden, Netherlands) in a Fluorescent Imaging Plate Reader (FLIPR, Molecular Devices, Sunnyvale, USA).
Complete medium: 50 mL HAMS F12 Nutrient Mixture (Gibco Invitrogen GmbH, Karlsruhe, Germany) with 10 vol. % FCS (foetal calf serum, Gibco Invitrogen GmbH, Karlsruhe, Germany, heat-inactivated); 2 mM L-glutamine (Sigma, Munich, Germany); 1 wt. % AA solution (antibiotic/antimycotic solution, PAA, Pasching, Austria) and 25 ng/ml NGF medium (2.5 S, Gibco Invitrogen GmbH, Karlsruhe, Germany)
Cell culture plate: poly-D-lysine-coated, black 96-hole plates with clear base (96 well black/clear plate, BD Biosciences, Heidelberg, Germany) are additionally coated with laminin (Gibco Invitrogen GmbH, Karlsruhe, Germany), by diluting laminin to a concentration of 100 μg/mL with PBS (Ca—Mg-free PBS, Gibco Invitrogen GmbH, Karlsruhe, Germany). Aliquots with a concentration of 100 μg/mL of laminin are taken and stored at −20° C. The aliquots are diluted with PBS in the ratio of 1:10 to 10 μg/mL of laminin and 50 μL of the solution is pipetted into each well of the cell culture plate. The cell culture plates are incubated for at least two hours at 37° C., the supernatant solution is aspirated and the wells are each washed twice with PBS. […]
The spinal column is removed from decapitated rats and this is placed directly in cold HBSS buffer (Hank's buffered saline solution, Gibco Invitrogen GmbH, Karlsruhe, Germany), i.e. located in an ice bath, combined with 1 vol. % (percent by volume) of an AA solution (antibiotic/antimycotic solution, PAA, Pasching, Austria). […] The resultant pellet is in each case redissolved in 250 μL of complete medium and the cell count is determined. […]

Chain of VR1/TRPV1 receptor (Q8NER1 whole entry): as the sequence (Q8NER1 whole entry) above

SMILES | IC50 (Human) following pH-stimulus (VR1/TRPV1 receptor) | Ki [1] | Ki [2] | Inhibition Formaldehyde test (male mice (NMRI))
CC1CCN(c2nc(C(F)(F)F)ccc2CNC(=O)C(C)c2ccc3[nH]cnc3c2)CC1 (stereo not drawn) [Example 13, 2-(1H-benzoimidazol-5-yl)-N-(4-methyl-6′-trifluoromethyl-3,4,5,6-tetrahydro-2H-[1,2′]bipyridinyl-3′-ylmethyl)-propionamide] | Ne | 7 nM | – | 0.3 per os 25%
CCCCOc1nc(C(C)(C)C)ccc1CNC(=O)C(C)c1ccc2[nH]cnc2c1 (stereo not drawn) [Example 23, 2-(1H-benzoimidazol-5-yl)-N-(2-butoxy-6-tert.-butyl-pyridin-3-ylmethyl)-propionamide] | Ne | 15.3 nM | – | 0.3 per os 13%
CC1CCN(c2nc(C(F)(F)F)ccc2CNC(=O)C(C)c2ccc3c(c2)OCO3)CC1 (stereo not drawn) [Example 60, 2-(benzo[d][1,3]dioxol-5-yl)-N-((2-(4-methylpiperidin-1-yl)-6-(trifluoromethyl)pyridin-3-yl)methyl)propanamide] | ne | 26 nM | 45.8 nM | –

Second part, led by results:

IC50 (Human) following pH-stimulus (VR1/TRPV1 receptor) | Ki [1] | Ki [2] | SMILES | Inhibition Formaldehyde test (male mice (NMRI))
ne | 27.8 nM | 60 nM | CC1CCN(c2nc(C(F)(F)F)ccc2CNC(=O)Cc2ccc3c(c2)OCCO3)CC1 [Example 58, 2-(2,3-dihydrobenzo[b][1,4]dioxin-6-yl)-N-((2-(4-methylpiperidin-1-yl)-6-(trifluoromethyl)pyridin-3-yl)methyl)acetamide] | –
ne | 3.5 nM | 5.7 nM | O=C(Cc1ccc2c(c1)OCCO2)NCc1ccc(C(F)(F)F)nc1SC1CCCCC1 [Example 59, N-((2-(cyclohexylthio)-6-(trifluoromethyl)pyridin-3-yl)methyl)-2-(2,3-dihydrobenzo[b][1,4]dioxin-6-yl)acetamide] | –
